In US20050136444A1 (priority 2003, published 2005):
Where a name gives a salt, the structure may show the parent alone. Read-outs that look alike come from different tables or passages of the source.

Columns and labels:
rats = assay: Observed behaviors / side effects after systemic administration; format: in vivo, rat; details: rats, i.p.
Protocol: These behaviors typically precede “barrel-rolling” seizures.
These effects persisted between 15 and 20 minutes. These effects were not observed in rats that received doses less than 10 mg/kg.
These effects persisted between 15 and 20 minutes and were shown by both sham-operated and SNL rats. These effects were not observed in rats that received doses less than 10 mg/kg. [drawing 22]
However, these effects were more robust and of longer duration (60-90 min).
These effects persisted between 60 and 90 minutes and were shown by both sham-operated and SNL rats. These effects were not observed in rats that received doses less than 10 mg/kg. [drawing 23]
A model of neuropathic pain was created in rats by tight ligation of the L5 and L6 spinal nerves. […] Rats were then treated with various doses of dPQR (3, 10 and 30 mg/kg, i.p.) and paw withdrawal thresholds were tested across a period of 3 hours.
A model of neuropathic pain was created in rats by tight ligation of the L5 and L6 spinal nerves. […] Rats were then treated with various doses of Compound 3099 (1, 3 and 10 mg/kg, i.p.) and paw withdrawal thresholds were tested across a period of 3 hours.
In an attempt to increase the efficacy of Compound 3099 in the SNL model, we administered a dose of 30 mg/kg (i.p.) to SNL rats. […] Further, these behaviors were also transient, such that, by the end of the testing period these effects appeared to have resolved.

NPFF1 = NPFF1 (Homo sapiens, UniProt Q9GZQ6); assay: Receptor Selection and Amplification Technology (R-SAT) functional assay, NPFF1; format: cell-based; set-up: expressed in transfected cells; host or cells: NIH3T3; details: for EC50: NA = No activity detectable at the highest dose tested (20 μM), read-out: NPFF1 pEC50 (converted)
Chain of NPFF1 (Q9GZQ6 whole entry, species assumed): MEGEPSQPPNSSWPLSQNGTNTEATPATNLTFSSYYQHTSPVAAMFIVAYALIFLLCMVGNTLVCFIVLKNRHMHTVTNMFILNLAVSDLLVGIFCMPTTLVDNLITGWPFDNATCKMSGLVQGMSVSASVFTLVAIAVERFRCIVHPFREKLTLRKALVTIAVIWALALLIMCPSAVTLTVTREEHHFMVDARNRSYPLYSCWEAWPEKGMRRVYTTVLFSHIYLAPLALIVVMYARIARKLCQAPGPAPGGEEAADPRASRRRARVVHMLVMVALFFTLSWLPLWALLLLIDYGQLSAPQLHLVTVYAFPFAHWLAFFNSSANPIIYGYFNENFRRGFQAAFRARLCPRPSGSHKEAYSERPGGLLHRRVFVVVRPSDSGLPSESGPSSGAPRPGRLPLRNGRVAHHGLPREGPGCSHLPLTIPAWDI
Protocol: (§1) Briefly, NIH3T3 cells were grown in 96 well tissue culture plates to 70-80% confluence. Cells were transfected for 16-20 h h with plasmid DNAs using Polyfect (Qiagen Inc.) as per manufacturer's protocols. R-SAT's were generally performed with 40 ng/well of receptor and 20 ng/well of β-galactosidase plasmid DNA. All receptor and G-protein constructs used were in the pSI-derived mammalian expression vector (Promega Inc) as described previously. […] For large-scale transfections, cells were transfected for 16-20 h, then trypsinized and frozen in DMSO. Frozen cells were later thawed, plated at ˜20,000 cells per well of a 96 half-area well plate that contained drug. With both methods, cells were then grown in a humidified atmosphere with 5% ambient CO2 for five days. Media was then removed from the plates and marker gene activity was measured by the addition of the β-galactosidase substrate o-nitrophenyl β-D-galactopyranoside (ONPG, in PBS with 0.5% NP-40). The resulting colorimetric reaction was measured in a spectrophotometric plate reader (Titertek Inc.) at 420 nm. All data were analyzed using the computer program XLFit (IDBSm).
(§2) R-SAT assay was conducted as set forth in […]

NPFF2b = target: T1, NPFF2b (Homo sapiens, UniProt Q9Y5X5); assay: cAMP assay in transiently transfected HEK-T cells, NPFF2; format: cell-based; details: HEK-T cell, read-out: NPFF2b % Efficacy Mean
T1 construct: expressed in transfected cells; host or cells: HEK-T
T1 sequence (Q9Y5X5 103-522 limits assumed): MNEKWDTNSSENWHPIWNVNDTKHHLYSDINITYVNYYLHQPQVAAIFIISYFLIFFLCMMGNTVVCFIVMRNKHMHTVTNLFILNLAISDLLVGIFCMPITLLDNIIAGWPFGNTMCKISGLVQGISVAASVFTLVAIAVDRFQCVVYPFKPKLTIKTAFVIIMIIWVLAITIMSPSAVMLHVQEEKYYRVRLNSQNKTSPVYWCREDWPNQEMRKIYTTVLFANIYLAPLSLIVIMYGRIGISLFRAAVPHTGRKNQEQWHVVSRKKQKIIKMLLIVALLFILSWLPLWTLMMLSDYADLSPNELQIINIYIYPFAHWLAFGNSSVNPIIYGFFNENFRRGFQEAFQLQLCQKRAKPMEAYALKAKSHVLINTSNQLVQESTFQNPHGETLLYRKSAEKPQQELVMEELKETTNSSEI
Protocol: An assay was established for measuring cAMP in transiently transfected cells that takes advantage of the fact that most cells that are transfected with one gene, can be simultaneously transfected with other genes. Thus, the NPFF1 and NPFF2 receptors were transfected along with a Gs-coupled receptor (EP2) at a ratio of 5:1.
This set up was routinely used for the transfection of HEK-T cells with NPFF1 and NPFF2 receptors. […] Cells were incubated for 15 minutes at 37° C. At the end of incubation, cells were lysed and the remainder of the assay performed as per DiscoveRx protocol.
Cells were incubated for another 15 minutes at 37° C. following which the cells were lysed and processed as per kit protocol.

NPFF2 = target: T2, NPFF2 (Homo sapiens, UniProt Q9Y5X5); assay: Receptor Selection and Amplification Technology (R-SAT) functional assay, NPFF2; format: cell-based
T2 construct: expressed in transfected cells; host or cells: NIH3T3
T2 sequence (Q9Y5X5 103-522): as the sequence (Q9Y5X5 103-522 limits assumed) above
Protocol: as §1, §2

[1] = R-SAT, Table 1, Efficacy is relative to endogenous ligand, read-out: NPFF1 % Efficacy
[2] = R-SAT, Table 1, Efficacy is relative to endogenous ligand, read-out: NPFF2 % Efficacy
[3] = R-SAT, Table 1, NA = No activity detectable at the highest dose tested (20 μM), read-out: NPFF2 pEC50 (converted)

For `Cl.N=C(N)NN=Cc1ccc(Cl)c(Cl)c1` [Compound 1045.HCl, 1-(3,4-Dichlorobenzylideneamino)guanidine Hydrochloride], the side effects observed (rats; 10 mg/kg) was “demonstrated writhing behavior and appeared lethargic”, the “side effects at doses less than 10 mg/kg” value (rats) was “not observed” and the Emax (NPFF1; R-SAT data, Table 2, multiple entries = different batches, read-out: NPFF1 % Efficacy Mean) was 17.7%. It also gave an Emax (NPFF2b) of 34%, an EC50 (NPFF2; NPFF2b pEC50 Mean, R-SAT data, Table 2, multiple entries = different batches) of 1000 nM and an Emax (NPFF2; R-SAT data, Table 2, multiple entries = different batches, read-out: NPFF2b % Efficacy Mean) of 67.6%.
In the case of `COc1cccc(C=NNC(=N)N)c1OCc1ccccc1` [Compound 3006, 1-(2-Benzyloxy-3-methoxybenzylideneamino)guanidine Hydrochloride], the Emax (NPFF1; [1]) is reported as 14%, the Emax (NPFF2; [2]) is reported as 47% and the EC50 (NPFF2; [3]) is reported as 794 nM.
With `COc1ccc(C(F)(F)F)cc1C=NNC(=N)N` [Compound 2074, 1-[2-Methoxy-5-(trifluoromethyl)benzylideneamino]guanidine Hydrochloride] the Emax (NPFF1; [1]) was 19%, the EC50 (NPFF1; R-SAT, Table 1) was 10 µM and the Emax (NPFF2; [2]) was 77%. For the same molecule, the EC50 (NPFF2; [3]) was 2510 nM.
For `N=C(N)NN=Cc1ccc(F)c2ccccc12` [Compound 2072, 1-[(4-Fluoro-1-naphthalen-1-yl)methylideneamino]guanidine Hydrochloride], the Emax (NPFF1; [1]) was 11%, the Emax (NPFF2; [2]) was 50% and the EC50 (NPFF2; [3]) was 2000 nM.
For `CCC(=NNC(=N)N)c1ccc(Cl)c(Cl)c1` [Compound 2056, 1-(3,4-Dichlorophenyl)-1-(propylideneaminoguanidine) Hydrochloride], the Emax (NPFF1; [1]) was 6%, the Emax (NPFF2; [2]) was 73% and the EC50 (NPFF2; [3]) was 501 nM.
For `COc1ccc(OC)c(C(C)=NNC(=N)N)c1` (mixture of isomers) [Compound 3029, 1-[1-(2,5-Dimethoxyphenyl)ethylideneamino]guanidine Hydrochloride], the Emax (NPFF1; [1]) was -1%, the Emax (NPFF2; [2]) was 32% and the EC50 (NPFF2; [3]) was 5010 nM.
Molecule `N=C(N)NN=Cc1ccc(F)c(C(F)(F)F)c1` [Compound 2068, 1-[4-Fluoro-3-(trifluoromethyl)benzylideneamino]guanidine Hydrochloride] has an Emax (NPFF1; [1]) of 13%, an Emax (NPFF2; [2]) of 61% and an EC50 (NPFF2; [3]) of 1000 nM.
Molecule `Cc1cccc(C=NNC(=N)N)c1` [Compound 3018, 1-(3-Methylbenzylideneamino)guanidine Hydrochloride] has an Emax (NPFF1; [1]) of 13%, an Emax (NPFF2; [2]) of 54% and an EC50 (NPFF2; [3]) of 5010 nM.
For `N=C(N)NN=Cc1ccc2c(c1)Cc1ccccc1-2` [Compound 2028, Hydrochloride], the Emax (NPFF1; [1]) was 37%, the EC50 (NPFF1; R-SAT, Table 1) was 1.58 µM and the EC50 (NPFF2; NPFF2 pEC50, R-SAT, Table 1, NA = No activity detectable at the highest dose tested (20 μM)) was 1260 nM. For the same molecule, the Emax (NPFF2; [2]) was 68%.
Work on `COc1cccc(C=NNC(=N)N)c1OC` [Compound 4004, 1-(2,3-Dimethoxybenzylideneamino)guanidine Hydrochloride] yielded an Emax (NPFF1; [1]) of 15%, an Emax (NPFF2; [2]) of 49% and an EC50 (NPFF2; [3]) of 10000 nM.
`N=C(N)NN=Cc1ccc(C(F)(F)F)cc1` [Compound 4002, 1-[(4-Trifluoromethyl)benzylideneamino]guanidine Hydrochloride] was tested, and the Emax (NPFF1; [1]) was 20%, the EC50 (NPFF1; R-SAT, Table 1) was 3.98 µM and the Emax (NPFF2; [2]) was 80%. The EC50 (NPFF2; [3]) was 2510 nM.
Molecule `[H]/N=C(\N)NN=Cc1ccc(Cl)cc1` [Compound 4008, 1-(4-Chlorobenzylideneamino)guanidine Hydrochloride] has an Emax (NPFF1; [1]) of 47%, an EC50 (NPFF1; R-SAT, Table 1) of 3.98 µM and an Emax (NPFF2; [2]) of 64%. The EC50 (NPFF2; [3]) was 6310 nM.
With `CC(C)Oc1ccc(C=NNC(=N)N)cc1` [Compound 2025, 1-(4-Isopropoxybenzylideneamino)guanidine] the Emax (NPFF1; [1]) was 51%, the EC50 (NPFF1; R-SAT, Table 1) was 3.98 µM and the Emax (NPFF2; [2]) was 87%. For the same molecule, the EC50 (NPFF2; [3]) was 3980 nM.
`N=C(N)NN=Cc1ccc(Cl)c(F)c1` [Compound 2030, 1-(4-Chloro-3-fluorobenzylideneamino)guanidine Hydrochloride] was tested, and the Emax (NPFF1; [1]) was 6%, the Emax (NPFF2; [2]) was 62% and the EC50 (NPFF2; [3]) was 2510 nM.
In the case of `CC(=NNC(=N)N)c1ccc(N2CCCCC2)cc1` [Compound 3039, 1-[1-(4-Piperidin-1-yl-phenyl)ethylideneamino]guanidine Hydrochloride], the Emax (NPFF1; [1]) is reported as 43%, the EC50 (NPFF1; R-SAT, Table 1) is reported as 0.398 µM and the Emax (NPFF2; [2]) is reported as 46%. The EC50 (NPFF2; [3]) was 501 nM.
With `CC(=NNC(=N)N)c1ccc2c(c1)CCCC2` [Compound 3024, 1-[1-(5,6,7,8-Tetrahydronaphthalen-2-yl)ethylideneamino]guanidine Hydrochloride] the Emax (NPFF1; [1]) was 41%, the EC50 (NPFF1; R-SAT, Table 1) was 1 µM and the Emax (NPFF2; [2]) was 99%. The EC50 (NPFF2; [3]) was 398 nM.
With `CC(=NNC(=N)N)c1ccc2c(c1)OCCO2` [Compound 2040, 1-[1-(2,3-Dihydro-benzo[1,4]dioxin-6-yl)ethylideneamino]guanidine Hydrochloride] the Emax (NPFF1; [1]) was 18%, the Emax (NPFF2; [2]) was 65% and the EC50 (NPFF2; [3]) was 7940 nM.
Molecule `CC(=NNC(=N)N)c1cc(C(F)(F)F)cc(C(F)(F)F)c1` [Compound 3028, 1-{1-[3,5-Bis-(trifluoromethyl)phenyl]ethylideneamino}guanidine Hydrochloride] has an Emax (NPFF1; [1]) of 9%, an Emax (NPFF2; [2]) of 23% and an EC50 (NPFF2; [3]) of 1260 nM.
Molecule `CC(=NNC(=N)N)c1cccc(C)c1` [Compound 3017, 1-[1-(3-Methylphenyl)ethylideneamino]guanidine Hydrochloride] has an Emax (NPFF1; [1]) of 17%, an Emax (NPFF2; [2]) of 80% and an EC50 (NPFF2; [3]) of 6310 nM.
Work on `CC(=NNC(=N)N)c1ccc(Cl)c(Cl)c1` [Compound 3012, 1-[1-(3,4-Dichlorophenyl)ethylideneamino]guanidine Hydrochloride] yielded an Emax (NPFF1; [1]) of 0%, an Emax (NPFF2; [2]) of 63% and an EC50 (NPFF2; [3]) of 251 nM.
In the case of `N=C(N)NN=Cc1ccc(Oc2ccccc2)cc1` [Compound 2020, 1-(4-Phenoxybenzylideneamino)guanidine Hydrochloride], the Emax (NPFF1; [1]) is reported as 24%, the EC50 (NPFF1; R-SAT, Table 1) is reported as 1.26 µM and the Emax (NPFF2; [2]) is reported as 31%. It also gave an EC50 (NPFF2; [3]) of 501 nM.
Work on `Cc1cc(C=NNC(=N)N)cc(C)c1O` [Compound 2033, 1-(3,5-Dimethyl-4-hydroxybenzylideneamino)guanidine Hydrochloride] yielded an Emax (NPFF1; [1]) of 7%, an Emax (NPFF2; [2]) of 33% and an EC50 (NPFF2; [3]) of 10000 nM.
For `Cc1ccc(C=NNC(=N)N)c(C)c1` [Compound 2077, 1-[2,4-Dimethylbenzylideneamino]guanidine Hydrochloride], the Emax (NPFF1; [1]) was 21%, the EC50 (NPFF1; R-SAT, Table 1) was 0.398 µM and the Emax (NPFF2; [2]) was 61%. It also gave an EC50 (NPFF2; [3]) of 3160 nM.
In the case of `N=C(N)NN=Cc1ccc(C(F)(F)F)c(F)c1` [Compound 2063, 1-[3-Fluoro-4-(trifluoromethyl)benzylideneamino]guanidine Hydrochloride], the Emax (NPFF1; [1]) is reported as 36%, the EC50 (NPFF1; R-SAT, Table 1) is reported as 3.16 µM and the Emax (NPFF2; [2]) is reported as 78%. For the same molecule, the EC50 (NPFF2; [3]) was 2510 nM.
`CCc1ccc(C=NNC(=N)N)cc1` [Compound 3025, 1-(4-Ethylbenzylideneamino)guanidine Hydrochloride] showed an Emax (NPFF1; [1]) of 28%, an EC50 (NPFF1; R-SAT, Table 1) of 3.16 µM and an Emax (NPFF2; [2]) of 101%. For the same molecule, the EC50 (NPFF2; [3]) was 2000 nM.
Molecule `N=C(N)NN=Cc1ccc(O)c(Cl)c1` [Compound 2031, 1-(3-Chloro-4-hydroxybenzylideneamino)guanidine Hydrochloride] has an Emax (NPFF1; [1]) of 1% and an Emax (NPFF2; [2]) of 16%.
`NC(N)=NN=Cc1ccc(Cl)c(C(F)(F)F)c1` [Compound 2035, 1-[4-Chloro-3-(trifluoromethyl)benzylideneamino]guanidine Hydrochloride] showed an Emax (NPFF1; [1]) of 45%, an EC50 (NPFF1; R-SAT, Table 1) of 3.98 µM and an Emax (NPFF2; [2]) of 114%.
